Test results taken from ChEMBL document CHEMBL1177697, “Evolution of poly(ADP-ribose) polymerase-1 (PARP-1) inhibitors. From concept to clinic” (J Med Chem, 2010).
Values belong to the compound of their own block, whether it stands above or below them.

Key:
[1] = tested on: Rattus norvegicus; assay: Cardioprotective effect in rat cardiac ischemia model assessed as reduction in infarct size at 80 mg/kg, iv administered prior to reperfusion; assay type: functional, Heart; design: scale not given: the % may be the effect or the level left
[2] = tested on: Rattus norvegicus; assay: Neuroprotective effect in rat transient MCAO model assessed as reduction in infarct volume at 40 mg/kg, iv administered prior to reperfusion; design: scale not given: the % may be the effect or the level left
[3] = tested on: LoVo; assay: Potentiation of TMZ-induced antiproliferation against human LoVo cells at 0.4 uM; assay type: functional
[4] = target: T1, Poly [ADP-ribose] polymerase 1 (Homo sapiens, UniProt P09874)
[5] = Half life in human patient at 2.8 mg/kg, iv; assay type: ADME, organism-based; design: dose 2.8 mg/kg, route intravenous; settings: in vivo
[6] = tested on: L1210; assay: Cytotoxicity against mouse L1210 cells; assay type: functional
[7] = Ratio of drug level in brain to plasma in rat; assay type: ADME
[8] = tested on: Rattus norvegicus; assay: Cardioprotective effect in rat ischemia/reperfusion-induced myocardial infarction model assessed as reduction in infarct size at 20 mg/kg, iv administered 10 mins prior to reperfusion; design: scale not given: the % may be the effect or the level left
[9] = tested on: Rattus norvegicus; assay: Neuroprotective effect in rat transient MCAO model assessed as reduction in infarct volume at 10 mg/kg/hr, iv administered prior to reperfusion; design: scale not given: the % may be the effect or the level left
[10] = target: Poly [ADP-ribose] polymerase 2 (Homo sapiens, UniProt Q9UGN5); assay: Inhibition of PARP2
[11] = Selectivity for […]
[12] = target: T1, Poly [ADP-ribose] polymerase 1; assay: Inhibition of PARP1 at 9.2 uM; design: scale not given: the % may be the effect or the level left
[13] = Half life in human patient at 200 to 800 mg, iv; assay type: ADME, organism-based; settings: in vivo
[14] = tested on: Rattus norvegicus; assay: Cardioprotective effect in rat ischemia/reperfusion-induced myocardial infarction model assessed as reduction in infarct size at 3 mg/kg/hr, iv administered prior to reperfusion measured after 2 hrs; assay type: functional, Myocardium; design: scale not given: the % may be the effect or the level left
[15] = tested on: Rattus norvegicus; assay: Cardioprotective effect in rat ischemia/reperfusion-induced myocardial infarction model assessed as reduction in infarct size at 3 mg/kg/hr, iv administered prior to reperfusion measured after 4 hrs; assay type: functional, Myocardium; design: scale not given: the % may be the effect or the level left
[16] = in vivo; settings: rat, brain/plasma, 10 mg/kg
Description: Ratio of drug level in brain to plasma in rat at 10 mg/kg/hr after 6 hrs

[17] = tested on: Rattus norvegicus; assay: Cardioprotective effect in rat ischemia/reperfusion-induced myocardial infarction model assessed as reduction in infarct size at 3 mg/kg/hr, iv administered prior to reperfusion; assay type: functional, Myocardium; design: scale not given: the % may be the effect or the level left
[18] = tested on: Liver microsomes; assay: Intrinsic clearance in human liver microsome; assay type: ADME
[19] = tested on: Homo sapiens; assay: Toxicity in iv infused human patients assessed as maximum tolerated dose; assay type: organism-based; settings: in vivo
[20] = Biodistribution in human patient urine; assay type: ADME, organism-based; settings: in vivo
[21] = Half life in iv dosed human patient; assay type: ADME, organism-based; settings: in vivo

T1 sequence (P09874 whole entry): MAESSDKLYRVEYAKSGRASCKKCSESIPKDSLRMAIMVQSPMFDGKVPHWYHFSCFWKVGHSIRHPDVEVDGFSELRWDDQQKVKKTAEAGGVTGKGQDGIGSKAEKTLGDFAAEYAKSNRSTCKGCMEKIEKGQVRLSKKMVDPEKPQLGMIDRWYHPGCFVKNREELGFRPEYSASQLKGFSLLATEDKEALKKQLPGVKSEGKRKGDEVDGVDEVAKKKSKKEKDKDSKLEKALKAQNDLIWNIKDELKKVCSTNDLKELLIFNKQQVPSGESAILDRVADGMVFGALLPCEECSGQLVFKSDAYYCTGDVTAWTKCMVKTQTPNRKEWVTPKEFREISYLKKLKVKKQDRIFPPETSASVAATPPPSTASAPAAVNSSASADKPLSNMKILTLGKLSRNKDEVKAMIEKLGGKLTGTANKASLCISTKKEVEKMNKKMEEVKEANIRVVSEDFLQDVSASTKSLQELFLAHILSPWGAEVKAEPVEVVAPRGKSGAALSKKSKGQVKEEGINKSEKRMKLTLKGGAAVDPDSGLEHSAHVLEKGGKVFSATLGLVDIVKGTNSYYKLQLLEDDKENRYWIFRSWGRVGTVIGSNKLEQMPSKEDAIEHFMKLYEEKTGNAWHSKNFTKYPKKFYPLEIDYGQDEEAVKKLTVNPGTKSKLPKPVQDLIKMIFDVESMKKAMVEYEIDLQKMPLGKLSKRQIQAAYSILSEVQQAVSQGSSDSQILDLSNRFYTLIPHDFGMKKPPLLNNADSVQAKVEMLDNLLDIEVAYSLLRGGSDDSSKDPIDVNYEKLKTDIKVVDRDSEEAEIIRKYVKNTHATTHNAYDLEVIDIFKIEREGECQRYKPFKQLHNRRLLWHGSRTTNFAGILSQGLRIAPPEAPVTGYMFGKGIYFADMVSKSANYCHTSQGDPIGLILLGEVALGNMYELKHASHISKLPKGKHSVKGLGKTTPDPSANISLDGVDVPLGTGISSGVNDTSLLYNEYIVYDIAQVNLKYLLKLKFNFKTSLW
Poly [ADP-ribose] polymerase 2, sequence (Q9UGN5 whole entry): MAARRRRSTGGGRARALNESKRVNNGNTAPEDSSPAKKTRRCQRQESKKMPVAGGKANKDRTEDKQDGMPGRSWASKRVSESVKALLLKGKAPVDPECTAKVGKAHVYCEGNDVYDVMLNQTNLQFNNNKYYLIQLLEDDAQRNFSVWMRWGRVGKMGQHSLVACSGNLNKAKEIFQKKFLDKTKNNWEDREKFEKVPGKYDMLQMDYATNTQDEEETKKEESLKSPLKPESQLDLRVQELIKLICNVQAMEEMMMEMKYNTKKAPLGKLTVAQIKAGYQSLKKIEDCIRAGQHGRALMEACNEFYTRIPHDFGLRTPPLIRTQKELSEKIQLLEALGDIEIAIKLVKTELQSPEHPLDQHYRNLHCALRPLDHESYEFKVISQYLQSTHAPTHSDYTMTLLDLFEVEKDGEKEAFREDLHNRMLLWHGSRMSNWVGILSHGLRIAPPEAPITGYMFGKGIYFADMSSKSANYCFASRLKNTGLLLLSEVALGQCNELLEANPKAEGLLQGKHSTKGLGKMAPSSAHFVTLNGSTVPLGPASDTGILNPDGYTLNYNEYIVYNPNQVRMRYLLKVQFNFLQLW

Structure (SMILES): CN1CCN(c2ccc3nc(O)c4ccccc4c3n2)CC1
Activity [1]: 25% | Activity [2]: 44%

Structure (SMILES): CN(C)Cc1ccc(-c2nc3cccc4c3n2CCNC4=O)cc1
PF50 [3]: 5.5

Structure (SMILES): O=c1[nH]cnc2ccccc12 [QUINAZOLINONE]
IC50 [4]: 15800 nM

half-life [5]: 4 min
Structure (SMILES): NC(=O)c1ccc(I)c([N+](=O)[O-])c1 [INIPARIB]

Structure (SMILES): Cc1nc2c(O)cccc2c(=O)[nH]1
Activity [6]: 90%

Structure (SMILES): O=C1NCCc2c(-c3ccc(CN4CCCC4)cc3)[nH]c3cccc1c23
PF50 [3]: 7.8

Kp [7]: 0.82
Structure (SMILES): Cc1nc2cccc(Cl)c2c(=O)[nH]1

Structure (SMILES): Nc1ncnc2c1ncn2[C@@H]1O[C@H](C(=O)N2CCN(CC(=O)Nc3cccc4c3CNC4=O)CC2)[C@@H](O)[C@H]1O
Activity [8]: 35% | Activity [9]: 57%

Structure (SMILES): O=c1[nH]c(CCCN2CC=C(c3ccc(F)cc3)CC2)nc2c(Cl)cccc12
IC50 [10]: 500 nM

IC50 [10]: 8 nM | Selectivity ratio [11]: 10
Structure (SMILES): N#Cc1ccc(-c2cnc3cccc(C(N)=O)c3n2)cc1

Activity [12]: 88% | IC50 [4]: 1000 nM
Structure (SMILES): NC(=O)c1cccc(C2CO2)c1 (centres undefined)

half-life [13]: 7.5 h
Structure (SMILES): OC[C@H]1O[C@@H](n2cnc3c(O)ncnc32)[C@H](O)[C@@H]1O [INOSINE]

Structure (SMILES): CN(C)Cc1ccc(-c2c[nH]c(=O)c3cccc(O)c23)cc1
Activity [14]: 50% | Activity [15]: 47% | Kp at 6 h [16]: 0.8 | Activity [17]: 57%

Structure (SMILES): CN(C)Cc1ccc(-c2cc3cccc4c3n2CCNC4=O)cc1
PF50 [3]: 3.8

CL [18]: < 1 mL/min/g
Structure (SMILES): O=C1CCC(=O)N1c1cc(Cc2n[nH]c(=O)c3ccccc23)ccc1F

Structure (SMILES): CNCc1ccc(-c2[nH]c3cc(F)cc4c3c2CCNC4=O)cc1 [RUCAPARIB]
MTD [19]: 200 mg/m2 | Drug uptake [20]: 11% | half-life [21]: 9.5 h

IC50 [4]: 270 nM
Structure (SMILES): O=c1[nH]ccc2c(Br)cccc12

IC50 [4]: 890 nM
Structure (SMILES): O=c1[nH]cc(-c2ccccc2)c2ccccc12

Structure (SMILES): CCc1cc2cc(C(CCN3CCCCC3)Cc3ccc4c(c3)OCCO4)ccc2[nH]c1=O (centres undefined)
IC50 [4]: 9.2 nM

IC50 [4]: 240 nM
Structure (SMILES): NC(=O)c1cccc2[nH]cnc12
